Measured values taken from patent publication US20060110456A1, “Method for biocidal and/or biostatic treatment and compositions therefor” (NATIONAL UNIVERSITY OF SINGAPORE, priority 2004, published 2006).
“Also recorded” adds a separate entry of the source. Where a name gives a salt, the structure may show the parent alone.

Experiments:
[1] = test system: marine bacteria (ten strains); experiment: Bacteriostatic vs bacteriocidal activity from growth assay: absorbance and CFU counts; assay type: cell-based, marine bacteria isolated from Singapore fouling communities; details: 50 μg ml^−1; for Growth assay: 24-hour change in absorbance for ten strains: strains 1, 4, 9, 14, 18, 20, 27, 28, 29, 30
Experimental: Bacteria strains (1, 4, 9, 14, 18, 20, 27, 28, 29, 30) representing a variety of morphological types were used.
For each well, […] of a 100 μg ml^−1 drug solution in sterile distilled water, was added to 45 μl of Marine Broth. Controls for growth consisted of 50 μl of sterile deionized water and 45 μl of marine broth. All wells used for growth studies were prepared in triplicate and inoculated with 5 μl of the bacterial suspension. Blanks consisting of the above volumes of pharmaceutical with Marine Broth and distilled water, were prepared in triplicate and inoculated with 5 μl of sterile seawater. Immediately after adding all the components to the wells for the growth studies, 10 μl was removed and used to inoculate plates of Marine Agar to determine colony-forming units (CFU). The absorbance (A600) of each well was read in the plate reader immediately.
The inoculated plates of Marine Agar were incubated overnight on a rotary shaker (150 rpm) at 30° C. inside a moistened airtight container. After incubation, the absorbance was read again and another 10 μl was removed and used to inoculate Marine Agar plates to determine CFU.
The difference in absorbance over 24 hours for each bacterial strain versus controls and treatments were plotted in FIGS. 3 to 6 for each of the four drugs. The data was analyzed using 1-tailed t-test.

barnacle cyprids = experiment: Cyprid settlement on plastic and glass substrata (IMD, ZPX); assay type: in vivo, Balanus amphitrite
Experimental: Assays were then carried out on plastic and glass substrata. […] The wells were then rinsed with clean water, and cyprids added in clean seawater.
A follow up experiment was carried out to examine the effect of ZPX on barnacle settlement when the experiment is carried out on different substrata. ZPX test solutions were prepared as described above from the tablet. The following test conditions were applied: • (1) Assay was carried out with ZPX test solutions in the 24 well tissue culture plates (as before); • (2) ZPX test solution at 25 ug ml^−1 were applied to the 24 well tissue culture plates and left in the well for 10 minutes. The solution is then discarded and the well was rinsed three times, each time with 2 ml of seawater. Clean seawater was added into each well. • (3) The assay with ZPX test solutions was carried out in glass scintillation bottles.
Cyprids were obtained and settlement experiments were carried out as described earlier. After 24 hours, the number of cyprids which had settled/attached was counted.

[2] = test system: bacterial biofilms (strains 9, 14, 20, 27 and 28); experiment: Effect of ZPX and ZFN on adhesion and removal of biofilms; assay type: cell-based, marine bacteria isolated from Singapore fouling communities; details: NTC; for Effect on established bacterial biofilms: 25 ug ml^−1; for Biofilm present after treatment (added with bacteria or after biofilm established): 50 ug ml^−1
Experimental: The bacteria were grown, washed and their concentrations were adjusted as described above. The bacterial suspension (75 μl) of strains 9, 14, 20, 27 and 28 in SSW and 50 μl of SDI water were placed into 96 well polystyrene microplates (Falcon 351172). Blank wells were filled with 75 μl of SSW and 50 μl of SDI. Three wells were used for blanks, each control and treatment.
The cells were allowed to attach to the wells for 2 h. Afterwards, unattached bacteria and liquid in the wells were removed by aspiration and wells were washed with 200 μl of SSW twice using a microplate washer as described above. After washing, 75 μl of SSW were added and 50 μl of SDI to the control (bacterial suspension and SDI as above) and blank (75 μl of SSW and 50 μl of SDI) wells.
After 2 h, the wells were washed with SSW, washed twice with SDI and stained with crystal violet as described above. After 10 min, the stain was removed, wells were washed twice with SDI, and crystal violet was released from the attached bacteria by adding 200 μl of sodium desoxycholate. After 10 min, absorbance (A590) of each well was read using a plate reader (Tecan Sunrise, Switzerland). Comparisons were made between wells where attached bacteria were exposed to SDI and wells where they were exposed to the pharmaceuticals.

| Structure (SMILES) | Change in CFU count after 24 hours ([1]; strain 1 (Rhodovulum)) | Inhibition of bacterial growth ([1]; strain 1 (Rhodovulum)) | Result (bacteriostatic / bacteriocidal / no effect) ([1]; strain 1 (Rhodovulum)) | Inhibition of bacterial growth ([1]; strain 4 (Bacillus)) | Result (bacteriostatic / bacteriocidal / no effect) ([1]; strain 4 (Bacillus)) | Inhibition of bacterial growth ([1]; strain 9 (Bacillus)) | Result (bacteriostatic / bacteriocidal / no effect) ([1]; strain 9 (Bacillus)) | Change in CFU count after 24 hours ([1]; strain 14 (Vibrio)) | Inhibition of bacterial growth ([1]; strain 14 (Vibrio)) | Result (bacteriostatic / bacteriocidal / no effect) ([1]; strain 14 (Vibrio)) | Inhibition of bacterial growth ([1]; strain 18 (Microbacterium)) | Result (bacteriostatic / bacteriocidal / no effect) ([1]; strain 18 (Microbacterium)) | Inhibition of bacterial growth ([1]; strain 20) | Result (bacteriostatic / bacteriocidal / no effect) ([1]; strain 20) | Inhibition of bacterial growth ([1]; strain 27) | Result (bacteriostatic / bacteriocidal / no effect) ([1]; strain 27) | Inhibition of bacterial growth ([1]; strain 28) | Result (bacteriostatic / bacteriocidal / no effect) ([1]; strain 28) | Inhibition of bacterial growth ([1]; strain 29) | Result (bacteriostatic / bacteriocidal / no effect) ([1]; strain 29) | also measured |
| --- | --- | --- | --- | --- | --- | --- | --- | --- | --- | --- | --- | --- | --- | --- | --- | --- | --- | --- | --- | --- | --- |
| CN1CCN(CCCN2c3ccccc3Sc3ccc(Cl)cc32)CC1 [PCZ, prochlorperazine maleate] | 0 | 0 | no effect | +++ (+++ denotes little or no growth, p < 0.001) | bacteriocidal | +++ (+++ denotes little or no growth, p < 0.001) | bacteriocidal | 0 | 0 | no effect | +++ (+++ denotes little or no growth, p < 0.001) | bacteriostatic | +++ (+++ denotes little or no growth, p < 0.001) | bacteriostatic | +++ (+++ denotes little or no growth, p < 0.001) | bacteriocidal | +++ (+++ denotes little or no growth, p < 0.001) | bacteriostatic | +++ (+++ denotes little or no growth, p < 0.001) | bacteriocidal | Killing of bacteria (decrease in absorbance and CFU counts) [1]: strain 14 was not killed; Growth assay: 24-hour change in absorbance for ten strains [1]: only strain numbers 1 and 14 grew in the presence of PCZ; Inhibition of bacterial growth ([1]; strain 30): +++ (+++ denotes little or no growth, p < 0.001); Result (bacteriostatic / bacteriocidal / no effect) ([1]; strain 30): bacteriostatic |
| Cc1cc2c(s1)Nc1ccccc1N=C2N1CCN(C)CC1 [ZPX, olanzapine] | – | – | – | – | – | – | – | – | – | – | – | – | – | – | – | – | – | – | – | – | Effect of ZPX on cyprid settlement on different substrata (barnacle cyprids; 24 well tissue culture plates, rinsed ZPX-treated wells (25 ug ml^−1, 10 minutes), glass bottles, 24 hours): no significant difference in settlement between plastic and glass; also recorded: After rinsing, the effect of ZPX in plastic was removed; also recorded: prevents the settlement of barnacle cyprids; Effect on established bacterial biofilms [2]: no significant effect; Biofilm present after treatment (added with bacteria or after biofilm established) [2]: Except for strain 28, little or no biofilm was present after treatment |
| CN(C)C(=O)C(CCN1CCC(O)(c2ccc(Cl)cc2)CC1)(c1ccccc1)c1ccccc1 [IMD, Loperamide hydrochloride] | – | – | – | – | – | – | – | – | – | – | – | – | – | – | – | – | – | – | – | – | Effect of IMD on settlement of cyprids: drug form, solvent, substratum (barnacle cyprids; tablet vs pure compound, DMSO vs DI stock, glass vs plastic, treated and rinsed wells, hydrochloride): no difference in activity between the solutions prepared from tablet and the pure compound; also recorded: no difference between the DMSO and DI prepared stock solutions; also recorded: no difference between glass and plastic; also recorded: no significant IMD residue present on the surfaces |
| Cc1nccn1CC1CCc2c(c3ccccc3n2C)C1=O (stereo not shown) [ZFN, ondansetron hydrochloride] | – | – | – | – | – | – | – | – | – | – | – | – | – | – | – | – | – | – | – | – | Effect on established bacterial biofilms [2]: no significant effect; Biofilm present after treatment (added with bacteria or after biofilm established) [2]: Except for strain 28, little or no biofilm was present after treatment |
| CNCCC(Oc1ccc(C(F)(F)F)cc1)c1ccccc1 (stereo not shown) [PZC, fluoxetine hydrochloride] | 0 | 0 | no effect | +++ (+++ denotes little or no growth, p < 0.001) | bacteriostatic | +++ (+++ denotes little or no growth, p < 0.001) | bacteriostatic | 0 | 0 | no effect | +++ (+++ denotes little or no growth, p < 0.001) | bacteriostatic | +++ (+++ denotes little or no growth, p < 0.001) | bacteriostatic | +++ (+++ denotes little or no growth, p < 0.001) | bacteriocidal | +++ (+++ denotes little or no growth, p < 0.001) | bacteriostatic | +++ (+++ denotes little or no growth, p < 0.001) | bacteriostatic | Inhibition of bacterial growth ([1]; strain 30): +++ (+++ denotes little or no growth, p < 0.001); Result (bacteriostatic / bacteriocidal / no effect) ([1]; strain 30): bacteriostatic |
| CN1CCN(CCCN2c3ccccc3Sc3ccc(C(F)(F)F)cc32)CC1 [TFZ, Trifluoperazine hydrochloride] | 0 | 0 | no effect | +++ (+++ denotes little or no growth, p < 0.001) | bacteriocidal | +++ (+++ denotes little or no growth, p < 0.001) | bacteriocidal | 0 | 0 | no effect | +++ (+++ denotes little or no growth, p < 0.001) | bacteriostatic | +++ (+++ denotes little or no growth, p < 0.001) | bacteriostatic | +++ (+++ denotes little or no growth, p < 0.001) | bacteriocidal | +++ (+++ denotes little or no growth, p < 0.001) | bacteriostatic | +++ (+++ denotes little or no growth, p < 0.001) | bacteriocidal | Killing of bacteria (decrease in absorbance and CFU counts) [1]: strain 14 was not killed; Growth assay: 24-hour change in absorbance for ten strains [1]: only strain numbers 1 and 14 grew in the presence of TFZ; Inhibition of bacterial growth ([1]; strain 30): +++ (+++ denotes little or no growth, p < 0.001); Result (bacteriostatic / bacteriocidal / no effect) ([1]; strain 30): bacteriostatic |
